Earlier results in patent US12000829B2, “Selection of patients for combination therapy” (SYNDAX PHARMACEUTICALS, INC., priority 2018, dated 2024).
Like-named read-outs stand apart in the source and are kept apart here.

Tests used:
[1] = tested on: modestly immunogenic mouse tumors; conditions: in combination with immune checkpoint blockade agents
[2] = tested on: syngeneic mouse tumor models of lung and renal cell carcinoma; conditions: two syngeneic mouse tumor models; tumor growth and survival
[3] = tested on: MDSCs and CD14+HLA-DR^Hi monocytes; conditions: ER+ breast cancer patients, combined with exemestane
[4] = tested on: squamous or non-squamous NSCLC; conditions: NSCLC and metastatic melanoma cohorts
[5] = tested on: melanoma
[6] = tested on: human carcinoma cell lines

For Nc1ccccc1NC(=O)c1ccc(CNC(=O)OCc2cccnc2)cc1 [Entinostat, N-(2-aminophenyl)-4-[N-(pyridine-3-yl)methoxycarbonylamino-methyl]-benzamide], the effect on tumors [1] is given as “can eradicate modestly immunogenic mouse tumors”, the “antitumor effect of PD-1 inhibition” value [2] is given as “enhanced the antitumor effect of PD-1 inhibition” and the “effect on CD14+HLA-DR^Hi monocytes in patients” value [3] is given as “increased immunocompetent CD14+HLA-DR^Hi monocytes”. The “effect on MDSCs in patients” value [3] was “reduction of immunosuppressive MDSCs”.
For “MPDL3280A: human anti-PD-L1 mAb with engineered Fc domain minimizing ADCC”, the responses [4] is given as “durable responses”.
In the case of “Pembrolizumab: humanized monoclonal IgG4 anti-PD-1 antibody”, the “additional patients with unconfirmed responses” value ([5]; human, in vivo) is given as 8 patients, the “biopsies of responding tumors” value ([5]; human, in vivo) is given as “dense infiltration by CD8^+ T cells” and the “rate of severe toxicities” value ([5]; less dose intense cohorts) is given as less than 10%.
In the case of “avelumab: fully human anti-PD-L1 IgG1 antibody”, the lysis ([6]; NK cells as effectors) is given as “Lysis was increased”, the lysis ([6]; NK cells preactivated with IL-12) is given as “increased lysis” and the lysis ([6]; NK-mediated ADCC vs whole PBMCs or dendritic cells isolated from PBMCs) is given as “Little or no lysis”. For the same compound, the “human carcinoma cell lines in which ADCC was induced” value ([6]; PBMCs as effectors) was 8 out of 18 and the “cell lines with augmented lysis” value ([6]; tumor cell lines pretreated with IFN-γ) was 4 out of 10.
